Measurements: the supplement of paper PMC4862054

Legend:
Conditions in all cases: incubation time: 72 h
BT-549 [1] = assay: normalised viability (% of control), CellTiter-Blue; higher = more viable cells (about 100 = DMSO control)
Outline: (§1)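 Breast cancer cell lines in 20 µl suspension were seeded onto 384-well plates pre-loaded with compound dissolved in 5 µl medium, then incubated 72 h. CellTiter-Blue reagent (2.5 µl) was added for 2 h at 37 °C and fluorescence read at 560/590 nm. Each plate was normalised to vehicle (100) and a positive kill control (0), with Z'-factor quality control. The value is normalised viability at one listed concentration of the series.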

DU-4475 [2] = assay: as above
Outline: as §1

HDQ-P1 [3] = assay: as above
Outline: as §1

CAL-85-1 [4] = assay: as above
Outline: as §1

CAL-51 [5] = assay: as above
Outline: as §1

MFM-223 = assay: as above
Outline: as §1

HCC1937 = assay: as above
Outline: as §1

BT-474 [6] = assay: as above
Outline: as §1

CAL-148 [7] = assay: as above
Outline: as §1

Hs578T [8] = assay: as above
Outline: as §1

BT-549 [9] = assay: drug sensitivity score (DSS), CellTox Green (DSS (AUC-based score)); higher = stronger drug effect (viability inhibition or cytotoxicity); extreme values may be limits of the assay
Outline: (§2)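 Each compound occupied 5 concentrations in 10-fold steps over its own 10,000-fold range in 384-well plates, into which breast cancer cell lines were seeded as 20 µl suspension. Following 72 h of incubation, CellTox Green fluorescence (485/520 nm) was measured, and CellTiter-Glo luminescence was measured after 10 min at room temperature. Plates were individually normalised to 0.1 % DMSO and a positive kill control. From the area under the fitted dose-response curve, a drug sensitivity score was calculated.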

DU-4475 [10] = assay: as above
Outline: as §2

HDQ-P1 [11] = assay: as above
Outline: as §2

CAL-85-1 [12] = assay: as above
Outline: as §2

CAL-51 [13] = assay: as above
Outline: as §2

MDA-MB-468 = assay: as above
Outline: as §2

MDA-MB-436 = assay: as above
Outline: as §2

MDA-MB-231 = assay: as above
Outline: as §2

CAL-120 = assay: as above
Outline: as §2

HCC1143 = assay: as above
Outline: as §2

BT-474 [14] = assay: as above
Outline: as §2

CAL-148 [15] = assay: as above
Outline: as §2

Hs578T [16] = assay: as above
Outline: as §2

MDA-MB-453 = assay: as above
Outline: as §2

HCC1599 = assay: as above
Outline: as §2

Nc1nc(F)nc2c1ncn2[C@@H]1O[C@H](CO)[C@@H](O)[C@@H]1O [Fludarabine]
normalised viability [%]
Conditions	BT-474 [6]	BT-549 [1]	CAL-51 [5]	CAL-85-1 [4]	CAL-148 [7]	DU-4475 [2]	HCC1937	HDQ-P1 [3]	Hs578T [8]	MFM-223
3 nM	–	–	100	88	71	91.1	–	107	–	–
10 nM	94	85.1	–	–	–	–	97.5	–	112	101
30 nM	–	–	101	87.2	82.6	93.2	–	91	–	–
100 nM	–	–	91.9	92.8	87.7	96.7	–	96.4	–	–
1000 nM	97.4	97.1	–	–	–	–	84.8	–	99.2	106
10000 nM	103	81.5	–	–	–	–	54.5	–	87.2	100

Conditions	drug sensitivity score
BT-474 [14]	0
BT-549 [9]	0
CAL-51 [13]	0
CAL-85-1 [12]	0
CAL-120	0
CAL-148 [15]	0
DU-4475 [10]	0
HCC1143	0
HCC1599	0
HDQ-P1 [11]	0
Hs578T [16]	0
MDA-MB-231	0
MDA-MB-436	0
MDA-MB-453	0
MDA-MB-468	0
